Laboratory results taken from patent publication US20200023206A1, “SYSTEMS AND METHODS FOR ULTRASOUND MODULATION OF NEURONS” (THE TRUSTEES OF COLUMBIA UNIVERSITY IN THE CITY OF NEW YORK, priority 2016, published 2020).
“And” between values parts separate entries of the source, which are not always exact repeats. Identical values can stand only once. “Also recorded” adds a separate entry of the source.

What was measured:
[1] = tested on: ultrasound-induced currents in HEK cells; assay: Sodium substitution with NMDG on ultrasound-induced currents (patch clamp); type: cell-based; settings: N=5 cells
Excerpt: FIGS. 21A-21B are diagrams illustrating exemplary effects of sodium substitution with N-methyl-d-glucamine (NMDG) on ultrasound-induced currents. FIG. 21A illustrates representative examples of ultrasound-induced currents in control solution (Ringers), NMDG-Ringers (without sodium), and in Ringers washout (black, first stimulus; blue, second; red, third). As embodied herein, the cell was held at −90 mV. Ultrasound stimulation parameters were 3.1 MHz, 1.88 MPa, 25 μs, 1 stimulus, 30 s intervals. FIG. 21B illustrates NMDG substitution on ultrasound-induced currents (N=5 cells). As embodied herein, responses to three stimulus presentations per condition were averaged and normalized to the mean amplitude in the control condition for each cell. Cells were held at −90 mV. […] Additionally or alternatively, and as embodied herein, an extracellular cation, such as sodium, can be used to mediate US-induced inward currents. For example and not limitation, as embodied herein, cells were stimulated with US, first in Ringers solution (with sodium), then in an N-methyl-d-glucamine (NMDG)-based Ringer solution (without sodium). NMDG can be utilized at least in part because most mammalian cation channels can be impermeable to this large cation. As embodied herein, each cell was stimulated with US five times at −90 and +30 mV alternatively. The same stimuli were applied 10 minutes following NMDG replacement of sodium and 10 minutes following washout with Ringers (with sodium). […] The first three responses were used to calculate the mean amplitude of the responses in each condition. With reference to FIGS. 21A and 21B, in 4/5 cells, a reduction in US-activated currents with NMDG substitution was shown; however, in most cases, the effect was not reversible, as shown for example in FIG. 21B. This can be due at least in part because NMDG was not effectively washed out of chamber during the washout period (˜10 minutes). Additionally or alternatively, the lack of reversibility can indicate cellular rundown over the course of the stimulations.

[2] = tested on: ultrasound-induced whole-cell currents in HEK cells; assay: Ruthenium red on ultrasound-induced whole-cell currents (patch clamp, Chamber B+laser); type: cell-based; settings: RR 10 μM
Excerpt: FIGS. 20A-20D are diagrams illustrating ruthenium red (RR) on ultrasound (US)-induced currents. FIG. 20A illustrates representative examples of ultrasound-induced currents before (control), during (ruthenium red), and after (washout) RR treatment (black, first stimulus; blue, second; red, third). As embodied herein, cell was held at −90 mV. Ultrasound stimulation parameters were 3.1 MHz, 1.6 MPa, 25 μs, 1 stimulus, 30 s intervals. FIG. 20B illustrates additional representative examples of ultrasound-induced currents with RR treatment. As embodied herein, cell was held at −90 mV. Ultrasound stimulation parameters were the same as FIG. 20A, except the pressure was 1.27 MPa. FIG. 20C illustrates a summary of the drug effects of ruthenium red on ultrasound-induced currents (N=5 cells). As embodied herein, responses to three stimulus presentations per condition were averaged and normalized to the mean amplitude in the control condition for each cell. Experiments were done at −70 mV or −90 mV holding potential. FIG. 20D illustrates HEK cells grouped into two populations according to ultrasound activation thresholds and ruthenium red sensitivity.
For purpose of illustration and not limitation, as embodied herein, system 1700 can be used to measure the pharmacological profile of the ultrasound-induced currents in HEK cells. Ruthenium red (RR) can be used to block non-selective cation channels, including the mechanically activated ion channels Piezol, Piezo2, as well as some TRP channels (TRPA1, TRPV3, TRPV4, TRPV5, TRPV6). As embodied herein, RR (10 μM) can block ultrasound-induced whole-cell currents in HEK cells. For example and not limitation, as embodied herein, each cell was stimulated with ultrasound five times at both −90 mV (or −70 mV) and +30 mV (or +50 mV) alternatively. The same stimulation was applied 10 minutes after RR wash-in and 10 minutes after the RR washout, respectively. […]

| SMILES | cells showing reduction in US-activated currents with NMDG substitution ([1]; NMDG-Ringers without sodium, 10 minutes after replacement, held at -90 mV) | cells showing increased response following NMDG replacement ([1]; NMDG-Ringers without sodium, held at -90 mV) | effect of replacement of sodium with NMDG on ultrasound-induced currents ([1]; un-normalized data, P=0.16 paired t test, -90 mV) | effect on ultrasound-induced whole-cell currents ([2]; 10 minutes after wash-in, held at -90 mV or -70 mV, N=5 cells) | number of cells showing enhanced US-induced currents in the presence of RR ([2]; N=5 cells analysed) | number of cells showing reduced US-evoked currents in the presence of RR ([2]; N=5 cells analysed) |
| --- | --- | --- | --- | --- | --- | --- |
| CNC[C@H](O)[C@@H](O)[C@H](O)[C@H](O)CO [NMDG, N-methyl-d-glucamine] | Four and 4/5 | one | did not show significant effect | – | – | – |
| N.N.N.N.N.N.N.N.N.N.N.N.N.N.[Cl-].[Cl-].[Cl-].[Cl-].[Cl-].[Cl-].[O-2].[O-2].[Ru+3].[Ru+3].[Ru+4] [RR, Ruthenium red] | – | – | – | can block; also recorded: varying effects | two | Three |
